Experimental findings from a melting point compilation (Tetko et al.; mined from patent text by program, amines drawn as free bases though some values may be those of a salt) are described below.

Bounds are passed on as bounds.

Compound `O=C(O)c1cc2c(cc1[N+](=O)[O-])OCO2` displayed a melting point of 160 to 163 °C.

Compound `CCCCCCC(C)(C)c1ccc(C2=CCCN(CC3CC3)C2)c(O)c1` gave a melting point of 118 °C.

In the case of `C[C@H]1CCCC(C)(C)[C@@H]1C(=O)c1ccco1`, the melting point lay within 81 to 84 °C.

Regarding `O=C(O)c1cnn2c(C(F)(F)F)cc(-c3ccc(OC(F)(F)F)cc3)nc12`, the melting point is 225 °C.

In the case of `CCOC(=O)c1cn(C2CC2)c2c(F)c(C#Cc3cc(Cc4cnc(N)nc4N)cc(OC)c3OC)c(F)cc2c1=O`, the melting point was greater than 230 °C.

`COc1ccc(N2CCN(C(=O)Oc3ccc(Oc4ccc(C(F)(F)F)cn4)cc3)CC2)c(OC)c1` gave a melting point of 98 to 99 °C.

On to `COC(=O)Nc1ccccc1C(=O)Nc1nnn[nH]1`, for which the melting point lay within 236 to 237 °C.

`O=C(O)CCCNC(=O)c1ccccc1NC(=O)c1ccccc1Cl`: the melting point fell in the range of 110 to 112 °C.

`Nc1nc2c(s1)CCN(CC=Cc1ccccc1OCc1ccccc1)CC2` returned a melting point of 103 to 107 °C.

The compound `O=C(NC(=O)N1CCC(Cc2ccccc2)CC1)c1ccc2[nH]c(=O)oc2c1` gave a melting point of 174 °C.

Consider `O=C(N[C@H](Cc1ccc(C(F)(F)F)cc1)[C@@H](O)c1ccc(F)cc1)c1ccnc2ccccc12` (racemic), for which the melting point fell in the range of 227 to 228 °C.

Turning to `Fc1cccc2c(NCCc3ccc(Oc4ccc(C(F)(F)F)cn4)cc3)ncnc12`, the melting point was 152 °C.

For the compound `CCCCNCC(=O)Nc1ccc2c(c1)C(=O)c1cc(NC(=O)CNCCCC)ccc1C2=O`, the melting point amounted to 125 °C.

Take `CC1(C)CC(=O)C(C(=O)NS(=O)(=O)c2ccc(Cl)cc2)C(=O)C1`: the melting point lay within 103 to 106 °C.

Regarding `CC(=O)OCCN1C(=O)C(NC(=O)Nc2cccc(-c3nnn[nH]3)c2)N=C(C2CCCCC2)c2cccc(C)c21` (centres undefined), the melting point fell in the range of 165 to 168 °C.

Turning to `CCCc1nccn1-c1nc(Cl)nc2c1ncn2C1OC(COC(C)=O)C(OC(C)=O)C1OC(C)=O` (centres undefined), the melting point was 126 to 128 °C.

For `O=C(O)COc1ccc([N+](=O)[O-])c(C(F)(F)F)c1`, the melting point lay in the range of 92 to 95 °C.

Take `COC(=O)c1nn(-c2ccccc2)c2c1CCc1cc(Cl)ccc1-2`: the melting point is 190 to 192 °C.

With `COc1cc2c(Nc3ccc(Br)cc3F)ncnc2cc1OCCCSC`, the melting point lay in the range of 250 to 252 °C.

`Cn1c(=O)cc(CBr)c2ccccc21` came in with a melting point of 188 to 190 °C.

Turning to `CC(C)Oc1cc(NNC(=N)C(F)(F)F)c(Cl)cc1Cl`, the melting point lay within 80.5 to 81 °C.

`Fc1cc2c(c(-c3c(Cl)cccc3Cl)c1)OC(CNC1CC1)C2` (centres undefined) had a melting point of 112 to 113 °C.

In turn, `N#CC(C#N)(CC=C(Cl)Cl)Cc1ccc(OC(F)(F)F)cc1` displayed a melting point of 96.5 °C.

`FC(F)(F)c1ccc(-c2cc(C(F)(F)F)n3ncc(-c4nc(-c5cccnc5)no4)c3n2)cc1`: the melting point came out at 199 °C.

Regarding `Fc1cc2c(Nc3ccc(Cl)c(Cl)c3)ncnc2cn1`, the melting point lay within 262 to 264 °C.

In the case of `O=c1[nH]c(=O)c2ccsc2[nH]1`, the melting point was greater than 300 °C.

Turning to `Cc1ccc(Nc2nc(CO)cs2)c(O)c1`, the melting point is 188 to 190 °C.

`CCCCN(Cc1ccc(-c2ccccc2S(=O)(=O)NC(C)(C)C)cc1)C(=O)Cl`: the melting point lay in the range of 128 to 129 °C.

Compound `CC(=O)c1cc(I)c(O)c(Cl)n1` showed a melting point of 223 to 224 °C.

Compound `O=C(O)c1ccc(CCNc2c(C(=O)O)cc(Cl)cc2[N+](=O)[O-])cc1` yielded a melting point of 255 to 257 °C.

Take `O=C(C1=NN(CC(F)(F)F)C(=O)CN1)c1ccccc1`: the melting point lay in the range of 142 to 145 °C.

In the case of `Cn1ccnc1Sc1ccc(Nc2c(C#N)cnc3cc(-c4ccc(CN5CCOCC5)cc4)ccc23)cc1Cl`, the melting point fell in the range of 148 to 150 °C.

Turning to `CCCc1c(O)c(O)c(C(=O)O)c2ccc(C)cc12`, the melting point was in the range of 159 to 160 °C.

As to `CCOC(=O)NC(=S)N1CC1C#N` (centres undefined), the melting point was in the range of 152 to 155 °C.

The compound `O=C1c2c(cccc2C(F)(F)F)-n2cnc(-c3noc(CN4Cc5ccccc5C4)n3)c2[C@@H]2CCN12` displayed a melting point of 185 to 188 °C.

For the compound `COCON1C(=O)C(=C/c2ccccc2)/C(=C\c2cc(OC)c(OC)c(OC)c2)C1=O`, the melting point was in the range of 175 to 177 °C.

The compound `COC1(C)CC(C)(C)c2ccc(Oc3ccc([N+](=O)[O-])cc3)cc2O1` (centres undefined) returned a melting point of 125 °C.

Consider `O=C(O)c1ccc(-c2ccoc2)s1`, for which the melting point came out at 147 °C.

In turn, `COc1ccc(/C=C/c2cc(/C=C/c3ccc4[nH]ccc4c3)n[nH]2)cc1OCc1ccccn1` gave a melting point of 109 to 118 °C.

The compound `O=C(c1ccc(-n2ccc(CO)n2)cc1Cl)N1Cc2cccn2Cc2ccccc21` gave a melting point of 85 °C.

As for `Nc1nc2ccccc2n[n+]1[O-]`, the melting point was 266 to 268 °C.

For the compound `COC12CC(C3(c4cncc(Br)c4)N=NCS3)CN(C)C1Cc1cn(C)c3cccc2c13` (centres undefined), the melting point is 131 to 137 °C.

Compound `COC(=O)c1ccc2c(c1)C(=O)C(CC=O)C2` (racemic) returned a melting point of 92 °C.

The compound `C#CCn1c(I)cc(C(O)C(C)(C)C)c(C)c1=O` (centres undefined) came in with a melting point of 105 to 106 °C.

For the compound `Cc1c(Cc2cccc(C(F)(F)F)c2)oc2cccc(O)c12`, the melting point is 91 to 92 °C.

Compound `O=c1[nH]c(-c2c[nH]c3ccccc23)nc2ccc(N3CCOCC3)cc12` came in with a melting point greater than 300 °C.

Turning to `CC1=Nc2ccccc2CC(c2cccnc2)N1C` (centres undefined), the melting point is 145 to 148 °C.

On to `CCOC(=O)c1ccc(NC(=O)CNc2ccccc2F)cc1`, for which the melting point was in the range of 169 to 170 °C.

`COC(=O)C=Cc1ccc(OCc2nc(-c3ccccc3)oc2C)c(F)c1`: the melting point is 167 to 168 °C.

Compound `CC1Cc2cc3c(cc2C(c2ccc([N+](=O)[O-])cc2)=NN1C(=O)CCCN)OCO3` (centres undefined) yielded a melting point of 110 to 112 °C.

`CCNc1nc(Cl)cc(NS(=O)(=O)c2ccc(N)cc2)n1` returned a melting point of 172 to 173 °C.

For `CNC(=O)c1ncn(C(OC)c2ccc(Cl)c(Cl)c2)c1C(=O)NC` (single isomer, unassigned; (+)), the melting point is 112 to 114 °C.

`COc1ccc(N2CCN(c3c(C)c(C)c4c(c3C(C)C)CC(C)(C)O4)CC2)cc1` came in with a melting point of 192 to 194 °C.

Compound `Cc1ccc2c(c1)C=Cc1cc(C)ccc1C2c1cn(Cc2ccc(C(=O)Nc3nc(CC(=O)Nc4nc(CC(=O)O)cs4)cs3)o2)c(=O)[nH]c1=S` showed a melting point of 253 °C.

As for `NC(=O)CNC(=O)c1cccc(-c2cccc3cc(COc4cc(Cl)cc(Cl)c4)sc23)c1`, the melting point was in the range of 164 to 165 °C.

In turn, `COc1cccc2c(=O)cc(N3CCOCC3)oc12` showed a melting point of 165 °C.

For `O=C(O)COc1ccc(SCc2ccc(OCc3ccc(Cl)cc3)cc2)c2c1CCC2`, the melting point was 170 to 172 °C.

As to `C=C(CS(=O)(=O)c1ccc(C)cc1)c1ccccc1`, the melting point was found to be 103 °C.

`CCCCOc1cc(CCC(=O)O)ccc1OCCCc1cn(-c2ccc(C(F)(F)F)cn2)nc1OCC` had a melting point of 92 to 93 °C.

`CC(C(=O)O)N(O)C(C)(C)C` (centres undefined): the melting point lay within 73 to 74 °C.

For the compound `CC(=O)Nc1ccc(OC(C)(C)C(=O)c2ccccc2)cc1`, the melting point lay within 141 to 142 °C.

Consider `N#CC(C=N)CC(=O)c1ccccc1` (centres undefined), for which the melting point lay in the range of 89 to 90 °C.

For the compound `COc1ccccc1C(=O)c1cccc2c1ccn2S(=O)(=O)c1ccc(C)cc1`, the melting point was determined as 154 °C.

In the case of `CC(C)OC(=O)c1n[nH]c2c(=O)[nH]c3cc(Cl)ccc3c(=O)c12`, the melting point was found to be 291 °C.

Turning to `N#CCCCCN1C(=NCCCn2ccnc2)c2cccc3cccc1c23`, the melting point is 76 to 78.5 °C.

`CCOC(=O)c1onc(OCC)c1CN1C(=O)c2ccccc2C1=O` returned a melting point of 93 to 94 °C.

`CCC(CC)Nc1nc(C)nc(Oc2c(C)cc(C)nc2C)c1[N+](=O)[O-]` showed a melting point of 134 to 135 °C.

In turn, `CCn1cc(Cl)nc(S)c1=O` displayed a melting point of 142 to 144 °C.

`COc1ccccc1NC(=O)C1CCc2nc[nH]c2C1` (centres undefined) gave a melting point of 100 to 102 °C.

`Cn1cncc1C(N)(c1ccc(C#N)cc1)c1ccc2c(c1)c(-c1cccc(Cl)c1)cc(=O)n2C` (centres undefined): the melting point worked out at 245 °C.

`CCN(CC)CCN1CCN(CCCN2CCCCC2)C1=C(C#N)C#N` yielded a melting point of 78 to 80 °C.

Turning to `COC(=O)c1cc(-c2ccc(Cl)cc2)n(-c2ccc(Cl)cc2Cl)n1`, the melting point turned out to be 167 °C.

`Cc1cccc(-c2nccc(-c3ccccc3C)n2)n1` had a melting point of 119 °C.

Consider `CC(=O)N1CCN(CC(C)NC(=O)c2ccc3c(c2)c(-c2ccccc2)nn3C)CC1` (centres undefined), for which the melting point was in the range of 98.8 to 100 °C.

In the case of `Nc1cc(=O)n(Cc2ccc(Br)c(Cl)c2)[nH]1`, the melting point lay within 145 to 146 °C.

`CCCCCCCCCCCCCCCCOc1ccc(C(=O)O)o1` registered a melting point of 118 to 119 °C.

Turning to `CCNC(=O)c1c(Cl)cccc1[Si](C)(C)C(C)(C)C`, the melting point fell in the range of 140 to 142 °C.

For `ClC(=NNc1ccc(Cl)cc1)c1ccccc1`, the melting point lay in the range of 107 to 108 °C.

Consider `CC1(CC(=O)Nc2ccccc2)OCCc2c1[nH]c1ccccc21` (centres undefined), for which the melting point fell in the range of 205 to 208 °C.

On to `CCOC(=O)C(=CNC1CC1)C(=O)c1c(N)c(F)c(F)c(OC(F)F)c1F`, for which the melting point was 103 to 104 °C.

With `C/C(=C(\C#N)C(N)=S)N1CCCCCC1`, the melting point was in the range of 158 to 161 °C.

Compound `CCC(=O)c1nc(C(C)(C)C)c(O)c(C(C)(C)C)n1` yielded a melting point of 123 to 125 °C.

Take `CCC(=O)N1CCC(NC(=O)Nc2cccc(F)c2)CC1`: the melting point is 158 to 164 °C.

`COc1ccc(CNc2ccnc(Cl)c2C(=O)O)cc1Cl` came in with a melting point of 228 to 230 °C.

The compound `CC1(C)N=C(c2ccccc2Cl)c2cc([N+](=O)[O-])cc(Cl)c2NC1=O` displayed a melting point of 121 °C.

On to `Nc1ncnn1C(=S)NCc1ccccc1`, for which the melting point was in the range of 157 to 158 °C.

`CNC(=S)n1nc(C=Cc2ccc(Cl)cc2)nc1N` gave a melting point of 209 to 210 °C.

Consider `COCC(=O)N1c2ccc(N3C[C@H](CNC(C)=O)OC3=O)cc2C[C@H]1C`, for which the melting point is 174 to 175 °C.

Consider `CCCCCN(CCCCC)C(=O)C(CCC(=O)OC)CS(=O)(=O)c1ccc(Cl)c(Cl)c1` (centres undefined), for which the melting point lay within 52 to 54 °C.
